Values after ≈ are worked out from the molar mass of the structure shown.
Columns and labels:
glucose-6-phosphatase = target: T1, glucose-6-phosphatase (Homo sapiens, UniProt P35575); experiment: Glucose-6-phosphatase activity; assay type: biochemical; conditions: 33°C, pH 6.7, control 72.0
T1 sequence (P35575 1-357): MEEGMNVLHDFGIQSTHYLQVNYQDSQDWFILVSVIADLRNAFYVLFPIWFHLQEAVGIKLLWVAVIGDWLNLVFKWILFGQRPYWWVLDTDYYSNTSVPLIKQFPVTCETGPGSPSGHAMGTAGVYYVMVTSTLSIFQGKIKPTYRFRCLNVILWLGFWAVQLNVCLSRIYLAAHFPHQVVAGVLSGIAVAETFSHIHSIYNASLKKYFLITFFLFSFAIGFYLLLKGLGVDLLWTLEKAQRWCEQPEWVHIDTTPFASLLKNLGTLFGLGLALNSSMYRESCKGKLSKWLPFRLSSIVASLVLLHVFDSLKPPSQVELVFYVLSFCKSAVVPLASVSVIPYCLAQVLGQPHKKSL

[1] = system: Agrobacterium tumefaction; experiment: Anti-bacterial activity, agar well diffusion; assay type: cell-based
Acetylcholinesterase = Acetylcholinesterase (Homo sapiens, UniProt P22303); experiment: biochemical
Acetylcholinesterase, sequence (P22303 32-614, species assumed): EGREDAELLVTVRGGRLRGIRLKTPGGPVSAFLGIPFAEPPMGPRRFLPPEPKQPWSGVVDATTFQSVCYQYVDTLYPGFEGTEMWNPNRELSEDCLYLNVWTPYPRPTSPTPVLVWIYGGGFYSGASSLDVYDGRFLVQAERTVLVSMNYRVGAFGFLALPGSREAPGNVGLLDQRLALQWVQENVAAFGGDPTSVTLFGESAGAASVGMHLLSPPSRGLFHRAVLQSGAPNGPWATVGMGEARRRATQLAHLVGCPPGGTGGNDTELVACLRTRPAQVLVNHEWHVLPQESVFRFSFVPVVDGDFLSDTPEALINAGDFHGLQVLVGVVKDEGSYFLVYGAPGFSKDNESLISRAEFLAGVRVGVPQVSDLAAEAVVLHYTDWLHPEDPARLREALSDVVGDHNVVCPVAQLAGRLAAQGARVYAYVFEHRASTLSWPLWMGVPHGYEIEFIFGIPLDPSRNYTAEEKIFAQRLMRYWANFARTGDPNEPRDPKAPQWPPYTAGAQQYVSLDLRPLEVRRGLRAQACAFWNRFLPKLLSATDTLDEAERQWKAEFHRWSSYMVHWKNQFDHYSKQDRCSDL

Staphylococcus aureus = experiment: Anti-bacterial activity, agar well diffusion; assay type: cell-based
[2] = ABTS free radical scavenging
α-glucosidase = α-glucosidase (Saccharomyces cerevisiae, UniProt P53341); experiment: Alpha glucosidase inhibition; assay type: biochemical; conditions: concentration 250 μg/mL
α-glucosidase, sequence (P53341 whole entry): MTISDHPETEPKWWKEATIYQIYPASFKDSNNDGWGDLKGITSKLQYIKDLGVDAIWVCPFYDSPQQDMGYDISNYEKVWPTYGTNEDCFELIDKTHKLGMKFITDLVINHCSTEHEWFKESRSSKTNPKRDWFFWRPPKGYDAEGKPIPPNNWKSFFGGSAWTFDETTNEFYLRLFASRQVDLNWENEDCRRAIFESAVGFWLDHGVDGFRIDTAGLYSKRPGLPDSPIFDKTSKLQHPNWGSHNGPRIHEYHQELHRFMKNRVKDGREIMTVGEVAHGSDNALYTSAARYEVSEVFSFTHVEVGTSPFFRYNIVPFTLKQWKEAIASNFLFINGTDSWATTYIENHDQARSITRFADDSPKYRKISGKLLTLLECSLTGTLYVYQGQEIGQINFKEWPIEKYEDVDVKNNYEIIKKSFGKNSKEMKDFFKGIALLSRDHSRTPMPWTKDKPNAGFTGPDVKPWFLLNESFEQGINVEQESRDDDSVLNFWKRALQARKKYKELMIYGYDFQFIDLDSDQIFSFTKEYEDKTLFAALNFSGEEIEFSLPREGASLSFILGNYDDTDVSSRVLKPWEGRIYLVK

porcine α-amylase = target: T2, porcine α-amylase (Sus scrofa, UniProt P00690); experiment: biochemical
T2 sequence (P00690 16-511): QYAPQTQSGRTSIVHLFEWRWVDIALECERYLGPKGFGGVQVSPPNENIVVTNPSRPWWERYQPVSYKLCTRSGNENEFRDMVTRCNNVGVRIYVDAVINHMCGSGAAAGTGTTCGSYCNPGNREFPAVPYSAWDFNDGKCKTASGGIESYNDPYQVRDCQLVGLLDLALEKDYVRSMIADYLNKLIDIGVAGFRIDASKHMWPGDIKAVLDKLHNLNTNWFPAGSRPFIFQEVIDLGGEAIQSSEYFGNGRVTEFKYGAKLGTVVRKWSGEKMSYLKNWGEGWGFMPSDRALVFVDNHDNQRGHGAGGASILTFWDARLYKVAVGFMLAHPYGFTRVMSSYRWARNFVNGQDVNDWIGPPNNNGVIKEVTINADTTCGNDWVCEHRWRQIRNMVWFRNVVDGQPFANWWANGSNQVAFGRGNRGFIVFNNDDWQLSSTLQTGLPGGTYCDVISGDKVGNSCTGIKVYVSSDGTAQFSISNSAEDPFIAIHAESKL

Proteus vulgaris = experiment: Anti-bacterial activity, agar well diffusion; assay type: cell-based
[3] = DPPH free radical scavenging
Butyrylcholinesterase = Butyrylcholinesterase (Homo sapiens, UniProt P06276); experiment: Anticholinesterase assay; assay type: biochemical
Butyrylcholinesterase, sequence (P06276 29-602): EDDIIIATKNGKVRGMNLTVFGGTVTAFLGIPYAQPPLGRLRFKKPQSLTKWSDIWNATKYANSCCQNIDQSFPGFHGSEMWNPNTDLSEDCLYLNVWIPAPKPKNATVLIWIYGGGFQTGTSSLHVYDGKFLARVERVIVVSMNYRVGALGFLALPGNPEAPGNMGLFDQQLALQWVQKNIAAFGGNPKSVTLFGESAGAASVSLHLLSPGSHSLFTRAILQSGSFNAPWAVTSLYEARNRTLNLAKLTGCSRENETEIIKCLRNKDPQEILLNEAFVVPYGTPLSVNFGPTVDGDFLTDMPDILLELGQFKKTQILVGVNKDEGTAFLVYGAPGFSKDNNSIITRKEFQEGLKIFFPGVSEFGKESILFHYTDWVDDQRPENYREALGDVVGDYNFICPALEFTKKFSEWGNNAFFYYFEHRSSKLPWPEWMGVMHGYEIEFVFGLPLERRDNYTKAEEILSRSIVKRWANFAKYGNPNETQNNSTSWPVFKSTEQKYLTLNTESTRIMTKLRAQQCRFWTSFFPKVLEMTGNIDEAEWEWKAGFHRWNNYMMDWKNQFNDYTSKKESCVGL

[4] = read-out: ZI (Zone of inhibition), Agrobacterium tumefaction
[5] = read-out: %AChE Inhibition (mean ± SEM)
[6] = read-out: ZI (Zone of inhibition), Staphylococcus aureus
[7] = read-out: ZI (Zone of inhibition), Proteus vulgaris
[8] = read-out: %BChE Inhibition (mean ± SEM)

## Cc1ccc(NC(=S)Nc2ccccc2)c(C)c1 [Compound IV, 1-(2,4-dimethylphenyl)-3-phenylthiourea]
glucose-6-phosphatase; concentration 125 µg/mL
  Total Activity of glucose-6-phosphatase: 17.70 mg of P released per hour
glucose-6-phosphatase; concentration 250 µg/mL
  Total Activity of glucose-6-phosphatase: 13.58 mg of P released per hour
glucose-6-phosphatase; concentration 500 µg/mL
  Total Activity of glucose-6-phosphatase: 11.77 mg of P released per hour
[1]; read-out: MIC, Agrobacterium tumefaction
  MIC: 13.5 µg/mL (≈ 52.6 µM)
[1]; [4]
  zone of inhibition at 10 µg/mL: 14 mm
  zone of inhibition at 20 µg/mL: 18 mm
  zone of inhibition at 30 µg/mL: 23 mm
Acetylcholinesterase
  IC50: 1960 µM
Acetylcholinesterase; [5]
  inhibition at 125 µg/mL: 42 ± 1.01%
  inhibition at 250 µg/mL: 45.1 ± 1.83%
  inhibition at 500 µg/mL: 50 ± 1.88%
  inhibition at 1000 µg/mL: 64 ± 1.7%
Staphylococcus aureus; read-out: MIC, Staphylococcus aureus
  MIC: 4.03 µg/mL (≈ 15.7 µM)
Staphylococcus aureus; [6]
  zone of inhibition at 10 µg/mL: 21 mm
  zone of inhibition at 20 µg/mL: 23 mm
  zone of inhibition at 30 µg/mL: 26 mm
[2]
  ABTS IC50: 100 µg/mL
  ABTS radical scavenging, in words: moderately effective
[2]; concentration 125 μg/mL
  ABTS % I (mean ± S.E.M): 64.81 ± 1.05%
[2]; concentration 250 μg/mL
  ABTS % I (mean ± S.E.M): 70.13± 0.05%
[2]; concentration 500 μg/mL
  ABTS % I (mean ± S.E.M): 74.99 ± 1.51%
[2]; concentration 1000 μg/mL
  ABTS % I (mean ± S.E.M): 78.15 ± 1.21%
α-glucosidase
  %Inhibition (mean ± SEM), alpha glucosidase: 55.88 ± 2.04%
Porcine α-amylase
  IC50: 242 µM
Porcine α-amylase; read-out: %Inhibition (mean ± SEM), alpha amylase, concentration 125 µg/mL
  inhibition at 125 µg/mL: 69 ± 1.19%
Porcine α-amylase; read-out: %Inhibition (mean ± SEM), alpha amylase, concentration 250 µg/mL
  inhibition at 250 µg/mL: 75.63 ± 0.63%
Porcine α-amylase; read-out: %Inhibition (mean ± SEM), alpha amylase, concentration 500 µg/mL
  inhibition at 500 µg/mL: 79.2 ± 1.09%
Porcine α-amylase; read-out: %Inhibition (mean ± SEM), alpha amylase, concentration 1000 µg/mL
  inhibition at 1000 µg/mL: 80.1 ± 2.02%
Proteus vulgaris; read-out: MIC, Proteus vulgaris
  MIC: 11.9 µg/mL (≈ 46.5 µM)
Proteus vulgaris; [7]
  zone of inhibition at 10 µg/mL: 14 mm
  zone of inhibition at 20 µg/mL: 18 mm
  zone of inhibition at 30 µg/mL: 23 mm
[3]
  DPPH IC50: 64 µg/mL
[3]; concentration 125 μg/mL
  DPPH % I (mean ± S.E.M): 66.15 ± 1.70%
[3]; concentration 250 μg/mL
  DPPH % I (mean ± S.E.M): 69.31 ± 2.11%
[3]; concentration 500 μg/mL
  DPPH % I (mean ± S.E.M): 74.13 ± 1.51%
[3]; concentration 1000 μg/mL
  DPPH % I (mean ± S.E.M): 79.15 ± 1.23%
Butyrylcholinesterase
  IC50: 585 µM
Butyrylcholinesterase; [8]
  inhibition at 125 µg/mL: 49.8 ± 1.53%
  inhibition at 250 µg/mL: 53.5 ± 1.07%
  inhibition at 500 µg/mL: 60.5 ± 1.61%
  inhibition at 1000 µg/mL: 76.1 ± 1.9%

From PMC6789174 (Drug Design, Development and Therapy, 2019)
